# According to patent US11384055B2 (BIOMARIN PHARMACEUTICAL INC., priority 2017, dated 2022):
# Biological target: T1, Human GO (Homo sapiens, UniProt Q9UJM8)
# T1 construct: purchased Novus Biologicals NBP1-72412
# T1 sequence (Q9UJM8 1-370): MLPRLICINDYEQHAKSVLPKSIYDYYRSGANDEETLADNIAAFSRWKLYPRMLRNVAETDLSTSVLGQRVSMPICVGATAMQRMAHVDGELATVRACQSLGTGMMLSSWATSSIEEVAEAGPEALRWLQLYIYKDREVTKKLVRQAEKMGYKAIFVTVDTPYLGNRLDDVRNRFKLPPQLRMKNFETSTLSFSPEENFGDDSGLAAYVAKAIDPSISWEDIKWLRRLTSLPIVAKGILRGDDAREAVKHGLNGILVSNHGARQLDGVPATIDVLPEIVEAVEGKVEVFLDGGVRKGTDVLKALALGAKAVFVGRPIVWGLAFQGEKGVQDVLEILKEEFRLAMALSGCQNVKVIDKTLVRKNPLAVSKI
# Test: GO enzymatic assay (coupled fluorescence/HRP assay, glycolate substrate)
# Type: biochemical
# Settings: Table 4; read-out: Range (range of IC50 values calculated from the enzymatic assays)
# In short: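 Human GO incubated with glycolate substrate in 50 mM potassium phosphate, pH 7, with varying inhibitor concentrations. Activity read by coupled HRP fluorescence. IC50 taken from variable-slope sigmoidal dose-response fits of percent inhibition relative to DMSO control.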
row,IC50,SMILES
1,< 100 nM,"O=C(O)c1[nH]nnc1SC1C[C@@H]2CC(c3ccc(OC(F)(F)F)cc3)C[C@@H]2C1 (stereo partly drawn) [Example 461, 4-(((cis-3a,6a)-5-(4-(trifluoromethoxy)phenyl)octahydropentalen-2-yl)thio)-1H-1,2,3-triazole-5-carboxylic acid]"
2,< 100 nM,"O=C(O)c1[nH]nnc1O[C@H]1CC[C@H](c2ccc(OCCC3CCCCC3)cc2)CC1 [Example 462, 4-(((trans)-4-(4-(2-cyclohexylethoxy)phenyl)cyclohexyl)oxy)-1H-1,2,3-triazole-5-carboxylic acid]"
3,< 100 nM,"O=C(O)c1[nH]nnc1O[C@H]1CC[C@H](c2ccc(OCCCO)cc2)CC1 [Example 463, 4-(((trans)-4-(4-(3-hydroxypropoxy)phenyl)cyclohexyl)oxy)-1H-1,2,3-triazole-5-carboxylic acid]"
4,< 100 nM,"CC(C)c1cc(-c2ccc([C@H]3CC[C@H](Oc4nn[nH]c4C(=O)O)CC3)cc2)[nH]n1 [Example 464, 4-(((trans)-4-(4-(3-isopropyl-1H-pyrazol-5-yl)phenyl)cyclohexyl)oxy)-1H-1,2,3-triazole-5-carboxylic acid 2,2,2-trifluoroacetate]"
5,100 to 1000 nM,"CN(c1nn[nH]c1C(=O)O)[C@H]1CC[C@@H](c2ccc(OC(F)(F)F)cc2)CC1 [Example 465, 4-(methyl((cis)-4-(4-(trifluoromethoxy)phenyl)cyclohexyl)amino)-1H-1,2,3-triazole-5-carboxylic acid]"
6,< 100 nM,"O=C(O)c1[nH]nnc1O[C@H]1CC[C@H](c2ccc(-c3ccn[nH]3)c(CO)c2)CC1 [Example 466, 4-(((trans)-4-(3-(hydroxymethyl)-4-(1H-pyrazol-5-yl)phenyl)cyclohexyl)oxy)-1H-1,2,3-triazole-5-carboxylic acid]"
7,< 100 nM,"O=C(O)c1[nH]nnc1O[C@H]1CC[C@@H](c2ccc(-c3ccn[nH]3)c(CO)c2)CC1 [Example 467, 4-(((cis)-4-(3-(hydroxymethyl)-4-(1H-pyrazol-5-yl)phenyl)cyclohexyl)oxy)-1H-1,2,3-triazole-5-carboxylic acid 2,2,2-trifluoroacetate]"
8,< 100 nM,"CN1CCN(c2ccc([C@H]3CC[C@H](Oc4nn[nH]c4C(=O)O)CC3)cc2)CC1 [Example 468, 4-(((trans)-4-(4-(4-methylpiperazin-1-yl)phenyl)cyclohexyl)oxy)-1H-1,2,3-triazole-5-carboxylic acid 2,2,2-trifluoroacetate]"
9,< 100 nM,"CC(C)(O)Cn1ccc(-c2ccc([C@H]3CC[C@H](Oc4nn[nH]c4C(=O)O)CC3)cc2)n1 [Example 469, 4-(((trans)-4-(4-(1-(2-hydroxy-2-methylpropyl)-1H-pyrazol-3-yl)phenyl)cyclohexyl)oxy)-1H-1,2,3-triazole-5-carboxylic acid 2,2,2-trifluoroacetate]"
10,< 100 nM,"O=C(O)c1[nH]nnc1O[C@H]1CC[C@H](c2ccc(-c3ccnn3CC3(O)CCCCC3)cc2)CC1 [Example 471, 4-(((trans)-4-(4-(1-((1-hydroxycyclohexyl)methyl)-1H-pyrazol-5-yl)phenyl)cyclohexyl)oxy)-1H-1,2,3-triazole-5-carboxylic acid 2,2,2-trifluoroacetate]"
11,< 100 nM,"NCCCOc1ccc([C@H]2CC[C@H](Oc3nn[nH]c3C(=O)O)CC2)cc1 [Example 472, 4-(((trans)-4-(4-(3-aminopropoxy)phenyl)cyclohexyl)oxy)-1H-1,2,3-triazole-5-carboxylic acid 2,2,2-trifluoroacetate]"
12,< 100 nM,"CCC(CC)c1cc(-c2ccc([C@H]3CC[C@H](Oc4nn[nH]c4C(=O)O)CC3)cc2)[nH]n1 [Example 473, 4-(((trans)-4-(4-(3-(pentan-3-yl)-1H-pyrazol-5-yl)phenyl)cyclohexyl)oxy)-1H-1,2,3-triazole-5-carboxylic acid]"
13,< 100 nM,"CNCCCOc1ccc([C@H]2CC[C@H](Oc3nn[nH]c3C(=O)O)CC2)cc1 [Example 474, 4-(((trans)-4-(4-(3-(methylamino)propoxy)phenyl)cyclohexyl)oxy)-1H-1,2,3-triazole-5-carboxylic acid 2,2,2-trifluoroacetate]"
14,< 100 nM,"CN(C)CCCOc1ccc([C@H]2CC[C@H](Oc3nn[nH]c3C(=O)O)CC2)cc1 [Example 478, 4-(((trans)-4-(4-(3-(dimethylamino)propoxy)phenyl)cyclohexyl)oxy)-1H-1,2,3-triazole-5-carboxylic acid 2,2,2-trifluoroacetate]"
15,< 100 nM,"CCC(O)(CC)Cn1nccc1-c1ccc([C@H]2CC[C@H](Oc3nn[nH]c3C(=O)O)CC2)cc1 [Example 479, 4-(((trans)-4-(4-(1-(2-ethyl-2-hydroxybutyl)-1H-pyrazol-5-yl)phenyl)cyclohexyl)oxy)-1H-1,2,3-triazole-5-carboxylic acid]"
16,< 100 nM,"CC(C)(O)Cn1nccc1-c1ccc([C@H]2CC[C@H](Oc3nn[nH]c3C(=O)O)CC2)cc1 [Example 480, 4-(((trans)-4-(4-(1-(2-hydroxy-2-methylpropyl)-1H-pyrazol-5-yl)phenyl)cyclohexyl)oxy)-1H-1,2,3-triazole-5-carboxylic acid]"
17,< 100 nM,"O=C(O)c1[nH]nnc1O[C@H]1CC[C@H](c2ccc(Cl)c(C3CCC3)c2)CC1 [Example 482, 4-(((trans)-4-(4-chloro-3-cyclobutylphenyl)cyclohexyl)oxy)-1H-1,2,3-triazole-5-carboxylic acid]"
18,< 100 nM,"O=C(O)c1[nH]nnc1O[C@H]1CC[C@H](c2ccc(OC(F)(F)F)c(C3CCC3)c2)CC1 [Example 484, 4-(((trans)-4-(3-cyclobutyl-4-(trifluoromethoxy)phenyl)cyclohexyl)oxy)-1H-1,2,3-triazole-5-carboxylic acid]"
19,< 100 nM,"COCCc1cc(-c2ccc([C@H]3CC[C@H](Oc4nn[nH]c4C(=O)O)CC3)cc2)[nH]n1 [Example 485, 4-(((trans)-4-(4-(3-(2-methoxyethyl)-1H-pyrazol-5-yl)phenyl)cyclohexyl)oxy)-1H-1,2,3-triazole-5-carboxylic acid 2,2,2-trifluoroacetate]"
20,< 100 nM,"O=C(O)c1[nH]nnc1CO[C@H]1CC[C@H](c2cc(Cl)cc(Cl)c2)CC1 [Example 486, 4-((((trans)-4-(3,5-dichlorophenyl)cyclohexyl)oxy)methyl)-1H-1,2,3-triazole-5-carboxylic acid]"
